Tests used:
PKC1 [1] = molecular target: T1, PKC1 (Saccharomyces cerevisiae, UniProt P24583); test: PKC1 protein kinase assay with synthetic Bck1 peptide; type: biochemical; conditions: for Stimulation of PKC1 by cofactor: in the presence of GTP-bound GST-Rho1
T1 construct: made in house; host or cells: PKC1-HA immunoprecipitated from S. cerevisiae extract; GST-Rho1 from baculovirus-infected Sf9 cells
Procedure: (§1) FIGS. 4A-4B. Rho1 allows cofactors to activate PKC1. FIG. 4A. Phosphorylation of synthetic Bck1 peptide by PKC1^HA immunoprecipitated from 50 μg of soluble yeast cell extract protein. Recombinant GST-Rho1 or GST-Cdc42 (1 μg) was preloaded with the indicated guanine nucleotide. Cofactors (80 μg/ml PS, 8 μg/ml DAG, and 100 μM CaCl2) were added to the reaction where indicated. Lanes 1 and 2 are control reactions with no GTPase. Mean and standard error for three experiments is shown. FIG. 4B. PS alone is sufficient to stimulate PKC1 fully in the presence of Rho1. Phosphorylation of Bck1 peptide by PKC1^HA in the presence of GTPγS-bound GST-Rho1 and the indicated cofactors. Conditions were as in FIG. 4A, except for PMA (16 ng/ml). Concentrations of PS as low as 8 μg/ml fully activated PKC1 (data not shown).
(§2) Yeast extract preparation, immunoprecipitation, immunodetection and protein kinase assays of Mpk1^HA were conducted as described previously (4). Preparation of cell extracts and immunoprecipitations for experiments with ^HARho1 were carried out as in (4) with some modifications. Lysis buffer without ρ-nitrophenyl phosphate and with 1% NP-40 was used. The extract (700 μg protein) was precleared by incubation with 20 μl of a 50% suspension of protein A-sepharose for 1 h prior to immunoprecipitation to eliminate non-specific binding of proteins to immunecomplexes. Beads were boiled in SDS-PAGE sample buffer, and samples were applied to 7.5% (for PKC1 blots) or 15% (for ^HARho1 blots) SDS-PAGE gels. For PKC1 kinase assays, all as described previously (5), except for the addition of recombinant GTPases (see below). A synthetic peptide corresponding to the sequence surrounding Ser939 of Bck1, a phosphorylation site for PKC 1, was used as substrate in PKC 1 kinase assays (5).
(§3) Recombinant Rho1 and Cdc42. Recombinant GST-Rho 1 and GST-Cdc42 were expressed and purified from baculovirus-infected insect (Sf9) cells, as described (23). For in vitro association with PKC1^HA, GST-Rho1 was not eluted from the glutathione agarose beads used for purification. GST-Rho1-bound beads were incubated with cell extract in immunoprecipitation buffer (4) for 5 h at 4° C., followed by 3 washes with this buffer. For use in PKC1^HA protein kinase assays, GST-Rho1 and GST-Cdc42 were eluted from the beads with reduced glutathione.
T1 sequence (P06780 2-206, one chain of several): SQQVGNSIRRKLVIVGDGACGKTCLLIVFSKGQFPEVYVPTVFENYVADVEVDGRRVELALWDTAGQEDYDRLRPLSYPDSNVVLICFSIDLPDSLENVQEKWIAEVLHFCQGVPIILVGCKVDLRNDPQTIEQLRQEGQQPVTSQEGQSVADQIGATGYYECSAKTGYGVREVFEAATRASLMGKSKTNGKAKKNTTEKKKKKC

[2] = test system: rho1 mutant strains YOC752 (rho1-2), YOC729 (rho1-3), YOC755 (rho1-5); test: Drug sensitivity of conditional rho1 mutants; type: cell-based, Saccharomyces cerevisiae; conditions: 23° C.
1,3-β-glucan synthase = test: Reconstitution of GS activity in rho1-3 membranes; type: biochemical, Saccharomyces cerevisiae; conditions: 37° C., 1 μg recombinant GTPase, 50 μM GTPγS
Procedure: FIGS. 6A-6C. GS activity from rho1 mutants (See reference of Example 3). FIG. 6A. GS activity is thermolabile in rho1^ts mutants. Crude extracts were made from cells growing at room temperature, and assayed for GS activity at the indicated temperatures in the presence of 50 μM GTPγS. FIG. 6B. Reconstitution of GS activity in rho 1-3 membranes with recombinant Rho1. GS activity in rho1-3 membrane fractions was measured at 37° C. in the presence of 1 μg of the indicated recombinant GTPase and 50 μM GTPγS (19). FIG. 6C. Reconstituted GS activity requires GTP. GS activity in wild-type membranes or rho1-3 membranes complemented with 1 μg of GST-Rho1 was measured at 37° C. in the presence of the indicated guanine nucleotide (20 μM). Results are expressed as percent activity relative to GTPγS.
18. Crude yeast extracts were prepared as described [Y. Kamada et al., (1995) Genes Dev. 9:1559], and stored at −80° C. in lysis buffer supplemented with 33% glycerol. Membrane fractions, where indicated, were obtained from crude extracts and 1,3-β-glucan synthase (GS) activity was measured as described in (2) with the following modifications: UDP-[^3H]glucose was used as the substrate and α-amylase (1 U/40 μl) was added to reaction mixtures to eliminate the contribution of [^3H]glucose incorporation into glycogen. For all GS assays, the mean and standard error for four experiments is shown.
19. […]

PKC1 [3] = molecular target: T2, PKC1 (Saccharomyces cerevisiae, UniProt P24583); test: PKC1 protein kinase assay with synthetic Bck1 peptide; type: biochemical; conditions: with or without cofactors PS, DAG, Ca2+
T2 construct: made in house; host or cells: PKC1-HA immunoprecipitated from S. cerevisiae extract; GST-Rho1 from baculovirus-infected Sf9 cells
T2 sequence (P24583 1-1151): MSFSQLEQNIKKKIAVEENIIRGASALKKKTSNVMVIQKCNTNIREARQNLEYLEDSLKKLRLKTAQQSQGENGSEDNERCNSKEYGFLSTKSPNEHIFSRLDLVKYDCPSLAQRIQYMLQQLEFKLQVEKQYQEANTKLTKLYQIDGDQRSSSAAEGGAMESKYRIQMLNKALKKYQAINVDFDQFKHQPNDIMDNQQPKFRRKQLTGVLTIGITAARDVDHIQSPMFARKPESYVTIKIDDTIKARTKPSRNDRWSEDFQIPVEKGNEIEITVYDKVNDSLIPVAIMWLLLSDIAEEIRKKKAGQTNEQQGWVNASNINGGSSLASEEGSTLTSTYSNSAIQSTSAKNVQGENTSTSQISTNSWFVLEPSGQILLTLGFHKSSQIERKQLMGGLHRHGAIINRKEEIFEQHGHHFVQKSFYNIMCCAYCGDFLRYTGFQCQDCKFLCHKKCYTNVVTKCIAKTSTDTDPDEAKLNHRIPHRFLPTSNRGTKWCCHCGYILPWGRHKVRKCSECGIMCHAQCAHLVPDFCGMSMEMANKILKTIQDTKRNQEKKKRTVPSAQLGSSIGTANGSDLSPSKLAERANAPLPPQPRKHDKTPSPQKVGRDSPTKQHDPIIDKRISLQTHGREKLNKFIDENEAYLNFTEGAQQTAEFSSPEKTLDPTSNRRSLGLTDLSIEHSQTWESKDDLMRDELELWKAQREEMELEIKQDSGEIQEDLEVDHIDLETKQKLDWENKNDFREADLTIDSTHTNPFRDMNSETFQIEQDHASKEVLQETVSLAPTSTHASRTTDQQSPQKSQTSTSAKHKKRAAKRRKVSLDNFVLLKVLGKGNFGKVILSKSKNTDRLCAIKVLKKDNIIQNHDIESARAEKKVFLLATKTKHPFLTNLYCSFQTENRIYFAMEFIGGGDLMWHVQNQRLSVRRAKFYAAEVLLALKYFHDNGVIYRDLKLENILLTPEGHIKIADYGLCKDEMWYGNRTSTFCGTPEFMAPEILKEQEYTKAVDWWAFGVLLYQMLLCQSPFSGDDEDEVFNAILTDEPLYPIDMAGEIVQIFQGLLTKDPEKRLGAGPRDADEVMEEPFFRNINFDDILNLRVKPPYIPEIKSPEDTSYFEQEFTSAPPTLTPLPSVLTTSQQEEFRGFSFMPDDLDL
Procedure: as §1, §2, §3

CaGGTase = test: Km determination, prenylation (TCA precipitation) assay; type: biochemical, Candida
Procedure: Briefly, a DEAE FF column is used for the first chromatographic step. The fractions from the columns in the purification are assayed for both GGTase and Ftase. For GGTase, 0.2 μM CaRho and 0.5 μM GGPP are used. For the FTase assay, 0.5 μM N-ras and 0.5 μM FPP are used. Both reactions are for 20-30 minutes at 37° C. The GGTase activity and FTase activity overlapped on the intial chromatography step, although the FTase activity was slightly shifted to the later fractions. The majority of the GGTase activity is pooled and then run on a SourceQ column, which separates the FTase and GGTase activities.
The fractions from the columns in the purification are being assayed for both GGtase and FTase. For GGTase 0.2 uM CaRho and 0.5 uM GGPP are used. For the FTase assay 0.5 uM N-ras and 0.5 uM FPP are used. Both reactions are for 20-30 minutes at 37°.
The second column (20 mL) Source Q separated the FTase from the GGTase The salt gradient was stretched out for 10 column volumes and 3.5 mL fractions were collected. Fraction 16 and 17 were used for Km and IC50 studies by Marc P.

[Ca+2] [Ca^2+]
Stimulation of PKC1 by cofactor (PKC1 [1]): No additional stimulation

O=S(=O)(O)c1cc(Nc2nc(Nc3ccccc3)nc(N(CCO)CCO)n2)ccc1/C=C/c1ccc(Nc2nc(Nc3ccccc3)nc(N(CCO)CCO)n2)cc1S(=O)(=O)O [Calcofluor white]
Sensitivity of rho1 mutants to drug [2]: hypersensitivity

CCCCCCCCCCCCCC(=O)O[C@@H]1[C@@H](C)[C@@]2(O)[C@@H](C=C(CO)C[C@]3(O)C(=O)C(C)=C[C@@H]23)[C@@H]2C(C)(C)[C@]12OC(C)=O [PMA, phorbol myristate acetate]
Stimulation of PKC1 by cofactor (PKC1 [1]): No additional stimulation

GST-Rho1: recombinant glutathione-S-transferase-Rho1 fusion purified from Sf9 insect cells
Restoration of GS activity (1,3-β-glucan synthase): restored fully
Stimulation of PKC1 activity by recombinant GTPase (PKC1 [3]): did not stimulate PKC1 activity alone

diacylglycerol [DAG]
Stimulation of PKC1 by cofactor (PKC1 [1]): No additional stimulation

echinocandin B
Sensitivity of rho1 mutants to drug [2]: hypersensitivity

huRhoA: human RhoA GTPase, protein substrate
Km Values (CaGGTase): Nor is human RhoA a substrate

phosphatidylserine
Stimulation of PKC1 by cofactor (PKC1 [1]): strongly activated
Concentration of PS that fully activated PKC1 (PKC1 [1]; in the presence of GTPγS-bound GST-Rho1, data not shown): ≤ 8 µg/mL
